Experimental data from PubChem BioAssay (NCI).
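In this assay, cells in 96-well plates receive the compound at five concentrations for 48 hours. Endpoints are linearly interpolated between the surrounding concentrations. GI50 = concentration required for 50% inhibition of growth. Definition used: TGI = concentration required for complete inhibition of growth.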

Legend:
Assay in all cases: DTP human tumour cell line panel, 48 h
RXF 393 renal = tested on: RXF 393 renal
MOLT-4 leukemia = tested on: MOLT-4 leukemia
SK-MEL-5 melanoma = tested on: SK-MEL-5 melanoma
OVCAR-8 ovarian = tested on: OVCAR-8 ovarian
SNB-19 CNS = tested on: SNB-19 CNS
A498 renal = tested on: A498 renal
A549 NSCLC = tested on: A549 NSCLC
HOP-62 NSCLC = tested on: HOP-62 NSCLC
SR leukemia = tested on: SR leukemia
NCI-H460 lung = tested on: NCI-H460 lung
EKVX NSCLC = tested on: EKVX NSCLC
SW-620 colon = tested on: SW-620 colon
M14 melanoma = tested on: M14 melanoma
MDA-MB-435 = tested on: MDA-MB-435
UACC-257 melanoma = tested on: UACC-257 melanoma
HOP-92 NSCLC = tested on: HOP-92 NSCLC
NCI/ADR-RES ovarian = tested on: NCI/ADR-RES ovarian
DU-145 prostate = tested on: DU-145 prostate
MCF7 breast = tested on: MCF7 breast
SF-539 CNS = tested on: SF-539 CNS
NCI-H226 lung = tested on: NCI-H226 lung
SF-295 CNS = tested on: SF-295 CNS
COLO 205 colon = tested on: COLO 205 colon
SN12C renal = tested on: SN12C renal
HT29 colon = tested on: HT29 colon
HCT-15 colon = tested on: HCT-15 colon
RPMI-8226 leukemia = tested on: RPMI-8226 leukemia
U251 CNS = tested on: U251 CNS
HL-60(TB) leukemia = tested on: HL-60(TB) leukemia
SNB-75 CNS = tested on: SNB-75 CNS
HS 578T breast = tested on: HS 578T breast
LOX IMVI melanoma = tested on: LOX IMVI melanoma
SF-268 CNS = tested on: SF-268 CNS
786-0 renal = tested on: 786-0 renal
MDA-MB-231 breast = tested on: MDA-MB-231 breast
UACC-62 melanoma = tested on: UACC-62 melanoma
KM12 colon = tested on: KM12 colon
SK-MEL-28 melanoma = tested on: SK-MEL-28 melanoma
SK-MEL-2 melanoma = tested on: SK-MEL-2 melanoma
HCT-116 colon = tested on: HCT-116 colon
T-47D breast = tested on: T-47D breast
TK-10 renal = tested on: TK-10 renal
IGROV1 ovarian = tested on: IGROV1 ovarian
OVCAR-3 ovarian = tested on: OVCAR-3 ovarian
CCRF-CEM leukemia = tested on: CCRF-CEM leukemia
K-562 leukemia = tested on: K-562 leukemia
ACHN renal = tested on: ACHN renal
PC-3 prostate = tested on: PC-3 prostate
OVCAR-4 ovarian = tested on: OVCAR-4 ovarian
SK-OV-3 ovarian = tested on: SK-OV-3 ovarian
BT-549 breast = tested on: BT-549 breast
MALME-3M melanoma = tested on: MALME-3M melanoma
CAKI-1 renal = tested on: CAKI-1 renal
OVCAR-5 ovarian = tested on: OVCAR-5 ovarian
UO-31 renal = tested on: UO-31 renal
HCC-2998 colon = tested on: HCC-2998 colon
NCI-H522 lung = tested on: NCI-H522 lung
NCI-H23 lung = tested on: NCI-H23 lung

In the case of `Nc1ncnc2ccc(Sc3ccc4ncnc(N)c4c3)cc12`, the TGI (RXF 393 renal) is reported as > 100 µM, the TGI (MOLT-4 leukemia) is reported as > 100 µM and the TGI (SK-MEL-5 melanoma) is reported as > 100 µM. The TGI (OVCAR-8 ovarian) was > 100 µM, the TGI (SNB-19 CNS) was > 100 µM and the TGI (A498 renal) was > 100 µM. For the same compound, the TGI (A549 NSCLC) was > 100 µM, the TGI (HOP-62 NSCLC) was > 100 µM and the TGI (SR leukemia) was > 100 µM. For the same compound, the TGI (NCI-H460 lung) was > 100 µM, the TGI (EKVX NSCLC) was > 100 µM and the TGI (SW-620 colon) was > 100 µM. For the same compound, the TGI (M14 melanoma) was > 100 µM, the TGI (MDA-MB-435) was > 100 µM and the TGI (UACC-257 melanoma) was > 100 µM. For the same compound, the TGI (HOP-92 NSCLC) was > 100 µM, the TGI (NCI/ADR-RES ovarian) was > 100 µM and the TGI (DU-145 prostate) was > 100 µM. The TGI (MCF7 breast) was > 100 µM, the TGI (SF-539 CNS) was > 100 µM and the TGI (NCI-H226 lung) was > 100 µM. The TGI (SF-295 CNS) was > 100 µM, the TGI (COLO 205 colon) was > 100 µM and the TGI (SN12C renal) was > 100 µM. The TGI (HT29 colon) was > 100 µM, the TGI (HCT-15 colon) was > 100 µM and the TGI (RPMI-8226 leukemia) was > 100 µM. For the same compound, the TGI (U251 CNS) was > 100 µM, the TGI (HL-60(TB) leukemia) was > 100 µM and the TGI (SNB-75 CNS) was > 100 µM. The TGI (HS 578T breast) was > 100 µM, the TGI (LOX IMVI melanoma) was > 100 µM and the TGI (SF-268 CNS) was > 100 µM. The TGI (786-0 renal) was > 100 µM, the TGI (MDA-MB-231 breast) was > 100 µM and the TGI (UACC-62 melanoma) was > 100 µM. For the same compound, the TGI (KM12 colon) was > 100 µM, the TGI (SK-MEL-28 melanoma) was > 100 µM and the TGI (SK-MEL-2 melanoma) was > 100 µM. For the same compound, the TGI (HCT-116 colon) was > 100 µM, the TGI (T-47D breast) was > 100 µM and the TGI (TK-10 renal) was > 100 µM. The TGI (IGROV1 ovarian) was > 100 µM, the TGI (OVCAR-3 ovarian) was > 100 µM and the TGI (CCRF-CEM leukemia) was > 100 µM. The TGI (K-562 leukemia) was > 100 µM, the TGI (ACHN renal) was > 100 µM and the TGI (PC-3 prostate) was > 100 µM. The TGI (OVCAR-4 ovarian) was > 100 µM, the TGI (SK-OV-3 ovarian) was > 100 µM and the TGI (BT-549 breast) was > 100 µM. The TGI (MALME-3M melanoma) was > 100 µM, the TGI (CAKI-1 renal) was > 100 µM and the TGI (OVCAR-5 ovarian) was > 100 µM. For the same compound, the TGI (UO-31 renal) was > 100 µM.

With `N#Cc1cccc(CSc2ncnc3nc[nH]c23)c1` the GI50 (RXF 393 renal) was 32.8 µM, the GI50 (MOLT-4 leukemia) was 85.2 µM and the GI50 (SK-MEL-5 melanoma) was 89.5 µM. The GI50 (SR leukemia) was 38.9 µM, the GI50 (NCI-H460 lung) was 74 µM and the GI50 (MDA-MB-435) was 89.8 µM. The GI50 (HOP-92 NSCLC) was 16.5 µM, the TGI (HOP-92 NSCLC) was 97.5 µM and the GI50 (NCI/ADR-RES ovarian) was 27.6 µM. The TGI (NCI/ADR-RES ovarian) was 80.8 µM, the GI50 (DU-145 prostate) was 73.6 µM and the GI50 (SN12C renal) was 91 µM. It also gave a GI50 (RPMI-8226 leukemia) of 40.4 µM, a GI50 (SNB-75 CNS) of 23.7 µM and a TGI (SNB-75 CNS) of 87.7 µM. The GI50 (HS 578T breast) was 64.2 µM, the GI50 (UACC-62 melanoma) was 75.7 µM and the GI50 (T-47D breast) was 56 µM. The GI50 (TK-10 renal) was 99.2 µM, the GI50 (CCRF-CEM leukemia) was 61.8 µM and the GI50 (K-562 leukemia) was 38.2 µM. The GI50 (UO-31 renal) was 71.9 µM.

With `Cc1ccc(N=Nc2c(O)c(C(=O)O)cc3ccccc23)cc1C` the TGI (RXF 393 renal) was > 100 µM, the TGI (MOLT-4 leukemia) was > 100 µM and the TGI (SK-MEL-5 melanoma) was > 100 µM. The TGI (OVCAR-8 ovarian) was > 100 µM, the TGI (HCC-2998 colon) was > 100 µM and the TGI (SNB-19 CNS) was > 100 µM. For the same compound, the TGI (A549 NSCLC) was > 100 µM, the TGI (HOP-62 NSCLC) was > 100 µM and the TGI (SR leukemia) was > 100 µM. The TGI (NCI-H460 lung) was > 100 µM, the TGI (EKVX NSCLC) was > 100 µM and the TGI (SW-620 colon) was > 100 µM. For the same compound, the TGI (M14 melanoma) was > 100 µM, the TGI (MDA-MB-435) was > 100 µM and the TGI (UACC-257 melanoma) was > 100 µM. The TGI (HOP-92 NSCLC) was > 100 µM, the TGI (NCI/ADR-RES ovarian) was > 100 µM and the TGI (MCF7 breast) was > 100 µM. The TGI (SF-539 CNS) was > 100 µM, the TGI (NCI-H226 lung) was > 100 µM and the TGI (SF-295 CNS) was > 100 µM. For the same compound, the TGI (COLO 205 colon) was > 100 µM, the TGI (HT29 colon) was > 100 µM and the TGI (NCI-H522 lung) was > 100 µM. The TGI (HCT-15 colon) was > 100 µM, the TGI (RPMI-8226 leukemia) was > 100 µM and the TGI (U251 CNS) was > 100 µM. For the same compound, the TGI (HL-60(TB) leukemia) was > 100 µM, the TGI (SNB-75 CNS) was > 100 µM and the TGI (HS 578T breast) was > 100 µM. For the same compound, the TGI (SF-268 CNS) was > 100 µM, the TGI (NCI-H23 lung) was > 100 µM and the TGI (786-0 renal) was > 100 µM. For the same compound, the TGI (MDA-MB-231 breast) was > 100 µM, the TGI (UACC-62 melanoma) was > 100 µM and the TGI (KM12 colon) was > 100 µM. The TGI (SK-MEL-28 melanoma) was > 100 µM, the TGI (SK-MEL-2 melanoma) was > 100 µM and the TGI (HCT-116 colon) was > 100 µM. The TGI (TK-10 renal) was > 100 µM, the TGI (IGROV1 ovarian) was > 100 µM and the TGI (OVCAR-3 ovarian) was > 100 µM. For the same compound, the TGI (CCRF-CEM leukemia) was > 100 µM, the TGI (K-562 leukemia) was > 100 µM and the TGI (ACHN renal) was > 100 µM. For the same compound, the TGI (PC-3 prostate) was > 100 µM, the TGI (OVCAR-4 ovarian) was > 100 µM and the TGI (SK-OV-3 ovarian) was > 100 µM. For the same compound, the TGI (BT-549 breast) was > 100 µM, the TGI (MALME-3M melanoma) was > 100 µM and the TGI (CAKI-1 renal) was > 100 µM. For the same compound, the TGI (OVCAR-5 ovarian) was > 100 µM and the TGI (UO-31 renal) was > 100 µM.
